# Patent publication US10188634B2, “3-(3H-imidazo[4,5-C]pyridin-2-yl)-1 H-pyrazolo[4,3-B]pyridines and therapeutic uses thereof” (Samumed, LLC, priority 2015, dated 2019)
# Assays:
# [1] = test system: LL29 cells (primary human fibroblasts derived from IPF patients) treated with TGF-β1, α-smooth muscle actin; assay: Inhibition of the fibrotic process: αSMA staining in TGF-β1 treated primary human fibroblasts from IPF patients (LL29 cells); assay type: cell-based; conditions: Fibroblast, 96 h; for EC50: LL29 cells treated with TGF-β1 (20 ng/mL), 4 days; for inhibition at 10 µM: LL29 cells treated with TGF-β1, 4 days, read-out: percent inhibition in brackets (given for EC50 >10 μM)
# [2] = test system: IL-6 in THP-1 cells; assay: Inhibition of IL-6 in LPS-stimulated THP-1 human monocyte cells (HTRF); assay type: cell-based; conditions: IL-6 HTRF; for EC50: 500 ng/mL LPS, 22 hours; for inhibition at 10 µM: LPS, read-out: percent inhibition in brackets (given for EC50 >10 μM)
# Procedure, shortened: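 IL-6 was quantified by HTRF ratio after LPS (500 ng/mL, 22 h) stimulation of THP-1 monocytes pretreated 2 h with compound, 10-point 1:3 dilutions from 10 μM, 0.1% DMSO. Cells were held in 1% FBS for 24 h beforehand. Values normalised to DMSO; four-parameter EC50, or % inhibition at 10 μM above that.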
SMILES,EC50 [2] [µM],EC50 [1] [µM],inhibition at 10 µM [1] [%],inhibition at 10 µM [2] [%]
"O=C(Nc1cncc(-c2ccc3[nH]nc(-c4nc5c(-c6ccncc6)cncc5[nH]4)c3n2)c1)C1CCCCC1 [Compound 135, N-(5-(3-(7-(pyridin-4-yl)-3H-imidazo[4,5-c]pyridin-2-yl)-1H-pyrazolo[4,3-b]pyridin-5-yl)pyridin-3-yl)cyclohexanecarboxamide]",> 1,> 10,0,26.6
"Cc1ccc(-c2cncc3[nH]c(-c4n[nH]c5ccc(-c6cncc(NC(=O)C(C)C)c6)nc45)nc23)s1 [Compound 373, N-(5-(3-(7-(5-Methylthiophen-2-yl)-3H-imidazo[4,5-c]pyridin-2-yl)-1H-pyrazolo[4,3-b]pyridin-5-yl)pyridin-3-yl)isobutyramide]",> 10,2.63,,41.3
"CC(C)C(=O)Nc1cncc(-c2ccc3[nH]nc(-c4nc5c(-c6ccccc6F)cncc5[nH]4)c3n2)c1 [Compound 65, N-(5-(3-(7-(2-fluorophenyl)-3H-imidazo[4,5-c]pyridin-2-yl)-1H-pyrazolo[4,3-b]pyridin-5-yl)pyridin-3-yl)isobutyramide]",> 10,> 10,1.9,28.2
"Cc1ccc(-c2cncc3[nH]c(-c4n[nH]c5ccc(-c6cncc(NC(=O)C7CCCC7)c6)nc45)nc23)s1 [Compound 386, N-(5-(3-(7-(5-Methylthiophen-2-yl)-3H-imidazo[4,5-c]pyridin-2-yl)-1H-pyrazolo[4,3-b]pyridin-5-yl)pyridin-3-yl)cyclopentanecarboxamide]",0.351,> 10,0,
"CCNCc1cncc(-c2ccc3[nH]nc(-c4nc5c(-c6cc(F)cc(NCCN(C)C)c6)cncc5[nH]4)c3n2)c1 [Compound 426, N^1-(3-(2-(5-(5-((Ethylamino)methyl)pyridin-3-yl)-1H-pyrazolo[4,3-b]pyridin-3-yl)-3H-imidazo[4,5-c]pyridin-7-yl)-5-fluorophenyl)-N^2,N^2-dimethylethane-1,2-diamine]",8.05,5.09,,
"Fc1cccc(-c2cncc3[nH]c(-c4n[nH]c5ccc(-c6cnccn6)nc45)nc23)c1 [Compound 492, 3-(7-(3-Fluorophenyl)-3H-imidazo[4,5-c]pyridin-2-yl)-5-(pyrazin-2-yl)-1H-pyrazolo[4,3-b]pyridine]",> 10,> 10,0,24.5
"CN(C)CCOc1cncc(-c2ccc3[nH]nc(-c4nc5c(-c6cccs6)cncc5[nH]4)c3n2)c1 [Compound 663, N,N-Dimethyl-2-((5-(3-(7-(thiophen-2-yl)-3H-imidazo[4,5-c]pyridin-2-yl)-1H-pyrazolo[4,3-b]pyridin-5-yl)pyridin-3-yl)oxy)ethan-1-amine]",> 10,1.22,,43.8
"CCNCc1cncc(-c2ccc3[nH]nc(-c4nc5c(-c6ccccn6)cncc5[nH]4)c3n2)c1 [Compound 146, N-((5-(3-(7-(Pyridin-2-yl)-3H-imidazo[4,5-c]pyridin-2-yl)-1H-pyrazolo[4,3-b]pyridin-5-yl)pyridin-3-yl)methyl)ethanamine]",> 10,1.86,,20.1
"Cc1cnc(-c2ccc3[nH]nc(-c4nc5c(-c6cccc(F)c6)cncc5[nH]4)c3n2)s1 [Compound 1082, 2-(3-(7-(3-Fluorophenyl)-3H-imidazo[4,5-c]pyridin-2-yl)-1H-pyrazolo[4,3-b]pyridin-5-yl)-5-methylthiazole]",> 10,> 10,0,14.3
"Cn1cc(-c2ccc3[nH]nc(-c4nc5c(N6CCCCC6)cncc5[nH]4)c3n2)c(CO)n1 [Compound 1089, (1-Methyl-4-(3-(7-(piperidin-1-yl)-3H-imidazo[4,5-c]pyridin-2-yl)-1H-pyrazolo[4,3-b]pyridin-5-yl)-1H-pyrazol-3-yl)methanol]",0.52,> 10,36,
"CCCCC(=O)Nc1cncc(-c2ccc3[nH]nc(-c4nc5c(-c6ccoc6)cncc5[nH]4)c3n2)c1 [Compound 299, N-(5-(3-(7-(Furan-3-yl)-3H-imidazo[4,5-c]pyridin-2-yl)-1H-pyrazolo[4,3-b]pyridin-5-yl)pyridin-3-yl)pentanamide]",> 10,> 10,38.1,48.6
"c1ccc(CNCc2cncc(-c3ccc4[nH]nc(-c5nc6c(-c7cccnc7)cncc6[nH]5)c4n3)c2)cc1 [Compound 108, N-Benzyl-1-(5-(3-(7-(pyridin-3-yl)-3H-imidazo[4,5-c]pyridin-2-yl)-1H-pyrazolo[4,3-b]pyridin-5-yl)pyridin-3-yl)methanamine]",0.03,> 10,0,
"c1cc2c(cc1-c1cncc3[nH]c(-c4n[nH]c5ccc(C6CCNCC6)nc45)nc13)OCO2 [Compound 1063, 3-(7-(Benzo[d][1,3]dioxol-5-yl)-3H-imidazo[4,5-c]pyridin-2-yl)-5-(piperidin-4-yl)-1H-pyrazolo[4,3-b]pyridine]",> 10,> 10,31.3,32.7
"Fc1cccc(-c2cncc3[nH]c(-c4n[nH]c5ccc(-c6cn[nH]c6)nc45)nc23)c1 [Compound 479, 3-(7-(3-Fluorophenyl)-3H-imidazo[4,5-c]pyridin-2-yl)-5-(1H-pyrazol-4-yl)-1H-pyrazolo[4,3-b]pyridine]",> 10,> 10,36.2,15.7
"CN(C)Cc1cncc(-c2ccc3[nH]nc(-c4nc5c(N6CCCCC6)cncc5[nH]4)c3n2)c1 [Compound 181, N,N-Dimethyl-1-(5-(3-(7-(piperidin-1-yl)-3H-imidazo[4,5-c]pyridin-2-yl)-1H-pyrazolo[4,3-b]pyridin-5-yl)pyridin-3-yl)methanamine]",6.01,8.03,,
"CC(C)C(=O)Nc1cncc(-c2ccc3[nH]nc(-c4nc5c(N6CCN(C)CC6)cncc5[nH]4)c3n2)c1 [Compound 233, N-(5-(3-(7-(4-Methylpiperazin-1-yl)-3H-imidazo[4,5-c]pyridin-2-yl)-1H-pyrazolo[4,3-b]pyridin-5-yl)pyridin-3-yl)isobutyramide]",> 10,> 10,3.4,36.7

# The next lines start with results.
EC50 [2] [µM],SMILES,EC50 [1] [µM],inhibition at 10 µM [1] [%],inhibition at 10 µM [2] [%]
> 10,"COc1cccc(-c2cncc3[nH]c(-c4n[nH]c5ccc(-c6cncc(NC(=O)CC(C)(C)C)c6)nc45)nc23)c1 [Compound 961, N-(5-(3-(7-(3-methoxylphenyl)-3H-imidazo[4,5-c]pyridin-2-yl)-1H-pyrazolo[4,3-b]pyridin-5-yl)pyridin-3-yl)-3,3-dimethylbutanamide]",> 10,0,22.5
> 10,"Cn1cc(-c2ccc3[nH]nc(-c4nc5c(-c6cc(F)cc(CNS(C)(=O)=O)c6)cncc5[nH]4)c3n2)cn1 [Compound 720, N-(3-Fluoro-5-(2-(5-(1-methyl-1H-pyrazol-4-yl)-1H-pyrazolo[4,3-b]pyridin-3-yl)-3H-imidazo[4,5-c]pyridin-7-yl)benzyl)methanesulfonamide]",> 10,3.8,44.7
> 10,"CCCC(=O)Nc1cncc(-c2ccc3[nH]nc(-c4nc5c(-c6cc(F)cc(CNS(C)(=O)=O)c6)cncc5[nH]4)c3n2)c1 [Compound 465, N-(5-(3-(7-(3-Fluoro-5-(methylsulfonamidomethyl)phenyl)-3H-imidazo[4,5-c]pyridin-2-yl)-1H-pyrazolo[4,3-b]pyridin-5-yl)pyridin-3-yl)butyramide]",2.35,,28.6
0.098,"NC1CN(c2cncc(-c3ccc4[nH]nc(-c5nc6c(-c7ccc(Cl)s7)cncc6[nH]5)c4n3)n2)C1 [Compound 1023, 1-(6-(3-(7-(5-Chlorothiophen-2-yl)-3H-imidazo[4,5-c]pyridin-2-yl)-1H-pyrazolo[4,3-b]pyridin-5-yl)pyrazin-2-yl)azetidin-3-amine]",6.19,,
> 10,"CCCCC(=O)Nc1cncc(-c2ccc3[nH]nc(-c4nc5c(-c6ccccn6)cncc5[nH]4)c3n2)c1 [Compound 159, N-(5-(3-(7-(Pyridin-2-yl)-3H-imidazo[4,5-c]pyridin-2-yl)-1H-pyrazolo[4,3-b]pyridin-5-yl)pyridin-3-yl)pentanamide]",> 10,0.4,28.2
> 10,"c1cc(-c2ccc3[nH]nc(-c4nc5c(-c6ccncc6)cncc5[nH]4)c3n2)ccn1 [Compound 130, 5-(pyridin-4-yl)-3-(7-(pyridin-4-yl)-3H-imidazo[4,5-c]pyridin-2-yl)-1H-pyrazolo[4,3-b]pyridine]",> 10,11,29.3
> 10,"COc1cccc(-c2cncc3[nH]c(-c4n[nH]c5ccc(-c6cncc(NC(=O)Cc7ccccc7)c6)nc45)nc23)c1 [Compound 955, N-(5-(3-(7-(3-methoxylphenyl)-3H-imidazo[4,5-c]pyridin-2-yl)-1H-pyrazolo[4,3-b]pyridin-5-yl)pyridin-3-yl)-2-phenylacetamide]",> 10,4.2,27.5
> 10,"Fc1cccc(-c2cncc3[nH]c(-c4n[nH]c5ccc(-c6cncc(OC7CCNCC7)c6)nc45)nc23)c1 [Compound 484, 3-(7-(3-Fluorophenyl)-3H-imidazo[4,5-c]pyridin-2-yl)-5-(5-(piperidin-4-yloxy)pyridin-3-yl)-1H-pyrazolo[4,3-b]pyridine]",1.42,,11.3
